Test systems include OVCAR-3; LOX IMVI; MOLT-4; SN12C; SK-MEL-2; ACHN; NCI-H460; SK-MEL-5; SNB-75; SF-539; OVCAR-5; HT-29; UACC-257; RPMI-8226; KM12; U-251; UACC-62.
Common to all, as to test: DTP human tumour cell line panel, 48 h

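Grown in 96-well plates, cells were treated for 48 hours with each compound at five concentrations. Insufficient inhibition: endpoint recorded as highest concentration tested. Here, GI50 denotes the concentration required for 50% inhibition of growth.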 Active and inactive are the calls of the source. Cut-off read from the data, not from the text of the source: active = GI50 up to about 1.1 µM and inactive = higher. Where only a bound is given, the exact number is not on record here.

Regarding `Cc1nc(Nc2ccc([N+](=O)[O-])cc2)sc1C(=O)/C=C/c1ccc(N(C)C)cc1`, the GI50 in the experiment on OVCAR-3 was > 100 µM (inactive); with LOX IMVI it was 64.7 µM (inactive); in the experiment on MOLT-4, 35.9 µM (inactive); in the experiment on SN12C, > 100 µM (inactive); in the experiment with SK-MEL-2 it was 64.3 µM (inactive); with ACHN, 48.3 µM (inactive). For the same molecule, the GI50 in the experiment on NCI-H460 was 65.2 µM (inactive); with SK-MEL-5 it was 50.5 µM (inactive); in the experiment on SNB-75 it was > 100 µM (inactive); in the experiment on SF-539, 88.9 µM (inactive); in the experiment with OVCAR-5 it was > 100 µM (inactive); in the experiment on HT-29 it was > 100 µM (inactive). For the same molecule, the GI50 with UACC-257 is 81.3 µM (inactive); in the experiment with RPMI-8226, 54.1 µM (inactive); with KM12, 57.8 µM (inactive); with U-251, > 100 µM (inactive); in the experiment with UACC-62, > 100 µM (inactive).
Take `CC(C)(C)c1cc(CCC(=O)Nc2ccc(Cl)cc2)nc(S)n1`: the GI50 in the experiment on OVCAR-3, in the experiment on LOX IMVI, with MOLT-4, with SN12C, in the experiment with SK-MEL-2 and in the experiment on ACHN was > 100 µM (inactive) each time. Further, the GI50 in the experiment on NCI-H460, with SK-MEL-5, in the experiment with SNB-75, with SF-539, in the experiment on OVCAR-5 and in the experiment with HT-29 was > 100 µM (inactive) throughout. Moreover, the GI50 in the experiment on UACC-257, with RPMI-8226, in the experiment on KM12, in the experiment on U-251 and in the experiment on UACC-62 was > 100 µM (inactive) each time.
For `CCCCCCCCCCCCCCCCCC(=O)NCCCNCCCNC(=O)CCCCCCCCCCCCCCCCC`, the GI50 with OVCAR-3 is 37.3 µM (inactive); in the experiment with LOX IMVI it was > 100 µM (inactive); with MOLT-4, > 100 µM (inactive); with SN12C, > 100 µM (inactive); in the experiment with ACHN it was > 100 µM (inactive); with NCI-H460 it was > 100 µM (inactive). Also, the GI50 with SK-MEL-5, with OVCAR-5, with HT-29, with UACC-257, in the experiment with RPMI-8226 and with U-251 was > 100 µM (inactive) throughout. Besides, the GI50 in the experiment with UACC-62 is > 100 µM (inactive).
With `COc1cccc2c1C(=O)C1(O)CCCCC21` (stereo unspecified), the GI50 with OVCAR-3, with LOX IMVI, in the experiment on MOLT-4, in the experiment on SN12C, in the experiment with SK-MEL-2 and in the experiment on ACHN was > 100 µM (inactive) throughout. The GI50 with NCI-H460, in the experiment on SK-MEL-5, in the experiment on SNB-75, in the experiment on SF-539, in the experiment on OVCAR-5 and in the experiment on HT-29 was > 100 µM (inactive) in each case. For the same molecule, the GI50 with UACC-257, with RPMI-8226, in the experiment with KM12, in the experiment on U-251 and in the experiment on UACC-62 was > 100 µM (inactive) in each case.
Turning to `COC1=CC(=C(C#N)/C(=N\c2ccccc2)SC)C=C(OC)C1=O`, the GI50 was 31.2 µM (inactive) with OVCAR-3; 39.5 µM (inactive) with LOX IMVI; 20.8 µM (inactive) with MOLT-4; > 100 µM (inactive) in the experiment with SN12C; 40.8 µM (inactive) with ACHN; 70.6 µM (inactive) in the experiment with NCI-H460. Moreover, the GI50 with SK-MEL-5 is 20.7 µM (inactive); in the experiment with SNB-75 it was 95.3 µM (inactive); with SF-539, > 100 µM (inactive); with HT-29, > 100 µM (inactive); in the experiment with UACC-257, 56.6 µM (inactive); in the experiment on RPMI-8226 it was 18.8 µM (inactive). Also, the GI50 in the experiment with KM12 is 63.2 µM (inactive); in the experiment with U-251 it was 0.352 µM (active); in the experiment on UACC-62 it was 44.3 µM (inactive).
For the molecule `Clc1ccccc1C1=NN(c2ccccc2)C2c3ccccc3OCC12` (stereo unspecified), the GI50 in the experiment on OVCAR-3 is > 100 µM (inactive); in the experiment on LOX IMVI it was 88.1 µM (inactive); with MOLT-4 it was 57.8 µM (inactive); in the experiment with SK-MEL-2, > 100 µM (inactive); with ACHN it was > 100 µM (inactive); with NCI-H460, > 100 µM (inactive). Moreover, the GI50 with SK-MEL-5 was 79.6 µM (inactive); in the experiment on SNB-75 it was > 100 µM (inactive); in the experiment on OVCAR-5, > 100 µM (inactive); in the experiment with HT-29, 58.5 µM (inactive); with UACC-257, 79.3 µM (inactive); in the experiment on RPMI-8226, 34.1 µM (inactive). Besides, the GI50 in the experiment on KM12 and with U-251 was > 100 µM (inactive) each time.
Take `CN(C)CCCNC(=O)N/N=C/c1cccc([N+](=O)[O-])c1`: the GI50 in the experiment on OVCAR-3, with LOX IMVI, with MOLT-4, in the experiment on SN12C, with SK-MEL-2 and in the experiment on ACHN was > 100 µM (inactive) throughout. Also, the GI50 in the experiment with NCI-H460 was > 100 µM (inactive); in the experiment on SK-MEL-5, > 100 µM (inactive); with SNB-75, 44 µM (inactive); in the experiment on SF-539, > 100 µM (inactive); with HT-29, > 100 µM (inactive); in the experiment on UACC-257, > 100 µM (inactive). For the same molecule, the GI50 with KM12, in the experiment on U-251 and with UACC-62 was > 100 µM (inactive) in each case.
Regarding `NC(Cc1ccccc1)C(=O)OCN1C(=O)C2C3C=CC(C2C1=O)C1C2C(=O)N(COC(=O)C(N)Cc4ccccc4)C(=O)C2C31` (stereo unspecified), the GI50 was 28.4 µM (inactive) with OVCAR-3; 18.7 µM (inactive) in the experiment with LOX IMVI; 20.8 µM (inactive) with SN12C; 26.5 µM (inactive) in the experiment on ACHN; 16.3 µM (inactive) in the experiment with NCI-H460; 18.2 µM (inactive) in the experiment on SK-MEL-5. Besides, the GI50 in the experiment with SNB-75 was 26.2 µM (inactive); in the experiment with SF-539 it was 22.5 µM (inactive); in the experiment with OVCAR-5, 35.5 µM (inactive); in the experiment on HT-29, 31.8 µM (inactive); in the experiment on UACC-257, 23.2 µM (inactive); with RPMI-8226, 18.7 µM (inactive). The GI50 is 20.7 µM (inactive) in the experiment with KM12, 17.3 µM (inactive) in the experiment with U-251 and 20.7 µM (inactive) in the experiment on UACC-62.
Consider `COP1(=O)CC2C(Cl)(Cl)C2(C)C1` (stereo unspecified), for which the GI50 in the experiment with OVCAR-3, in the experiment on LOX IMVI, in the experiment on MOLT-4, in the experiment with SN12C, in the experiment with NCI-H460 and in the experiment with SK-MEL-5 was > 100 µM (inactive) each time. Also, the GI50 in the experiment with SNB-75, in the experiment on SF-539, in the experiment on HT-29, with RPMI-8226, in the experiment with KM12 and in the experiment with U-251 was > 100 µM (inactive) each time. Also, the GI50 in the experiment with UACC-62 was > 100 µM (inactive).

The values are drawn from ChEMBL document CHEMBL1201862, “PubChem BioAssay data set” (2004).
